We go through 2 molecules from patent US10336682B1, “Hydroxytyrosol shikimic acid ester for treating cardiovascular deceases and a method of preparing the same” (SHAANXI UNIVERSITY OF SCIENCE AND TECHNOLOGY, priority 2019, dated 2019).

The test system of experiment [1] is blood clot (thrombus). The experiment in a line: Measurement of thrombus resolution rate: mouse blood clots incubated with test solution. The following applies: for Resolution/% (thrombus resolution rate): 2 mL solution on mouse blood clot, 6 hours at 37° C. Also noted: species or system Kunming mice. On the procedure:
Measurement of Thrombus Resolution Rate in Mice
Experimental materials: Clean-grade Kunming mice, weighing 20-28 g each, half male and half female; urokinase (Shanghai Maclean Biotechnology Co., Ltd.)
Experimental methods: 40 healthy Kunming mice were randomly divided into 5 groups according to their body weight, 8 in each group, half male and half female. One group of mice was selected as blank control. 1 mL of blood was taken from each mouse of the blank control group. After the blood was solidified, the formed blood clot (thrombus) was rinse with physiological saline for 30 minutes, and dried and weighed. The average weight of blood clot was calculated as W. Other groups of mice were treated with the same method. The blood clots were rinsed, and placed in cryotubes. 2 mL solutions of urokinase (positive control group), a low dose of hydroxytyrosol shikimic acid ester (experiment group 1), a medium dose of hydroxytyrosol shikimic acid ester (experimental group 2), and a high dose of hydroxytyrosol shikimic acid ester (experimental group 3) were added to the blood clots. For the blank control group, an equal volume of physiological saline was added to the blood clot. After incubating for 6 hours in a 37° C. incubator, the clots were taken out and rinsed with physiological saline for 30 min. After drying and weighing, the average weight of the blood clot was recorded as G, and the resolution rate of the blood clot was calculated according to the following formula. Thrombus Resolution Rate (%)=[(W−G)/W]×100%

In experiment [2] the test system is thromboxane B2 (TXB2). Kind of experiment: Measurement of TXB2 in rat plasma after intragastric administration. The following applies: for TXB2 level in rat plasma: after 20 days, male SD rats. Format: in vivo, SD rats. The source says:
(§1) Measurement of thromboxane B2 (TXB2), 6-keto prostaglandin F1a (6-Ke-PGF1a) and prostaglandin E2 (PGE2) in rat plasma by enzyme-linked immunosorbent assay
(§2) Experimental materials: clean grade SD rats, body weight 150-250 g, male; TXB2 radioimmunoassay kit, 6-Ke-PGF1a radioimmunoassay kit, PGE2 radioimmunoassay kit, Shanghai Bairui Biotechnology Co., Ltd.
(§3) Experimental methods: 32 rats were randomly divided into 4 groups, 8 rats in each group. After 2 days of normal feeding, blood was taken from the jugular vein of each rat, and the plasma was separated and frozen at −20° C. On the next day, rats in the experimental groups were intragastrically administered with low doses of hydroxytyrosol shikimic acid ester (experimental group 1), medium dose of hydroxytyrosol shikimic acid ester (experimental group 2) and high-dose hydroxytyrosol shikimic acid ester (experimental group 3) at a dose of 1 mL/100 g. Rats in the control group were intragastrically administered with the same amount of normal saline. After 20 days, blood was taken from the jugular vein of each rat, anticoagulated, and the plasma was separated and frozen at −20° C. The contents of plasma TXB2, 6-Ke-PGF1A and PGE2 in each group of rats were determined according to TXB2, 6-Ke-PGF1a and PGE2 kit methods.

The subject of experiment [3] is prostaglandin E2 (PGE2). Kind of experiment: Measurement of PGE2 in rat plasma after intragastric administration. The settings on record: for PGE2 level in rat plasma: after 20 days, male SD rats. Format: in vivo, SD rats.
From the text: as §1, §2, §3

Experiment [4] concerns 6-keto prostaglandin F1a (6-Ke-PGF1a). The experiment in a line: Measurement of 6-Ke-PGF1a in rat plasma after intragastric administration. The settings on record: for 6-Ke-PGF1a level in rat plasma: after 20 days, male SD rats. Format: in vivo, SD rats.
From the text: as §1, §2, §3

Setting [5] is: compared with the blank control group, 25-250 mg/Kg · d.

Consider `O=C(OCCc1ccc(O)c(O)c1)C1=C[C@@H](O)[C@@H](O)[C@H](O)C1` [hydroxytyrosol shikimic acid ester], for which the “Resolution/% (thrombus resolution rate)” value in experiment [1] (2.5 mg/mL (low dose, experimental group 1)) is listed as 6.33 ± 0.19 %; in experiment [1] (5 mg/mL (medium dose, experimental group 2)), 7.04 ± 0.41 %; in experiment [1] (10 mg/mL (high dose, experimental group 3)), 8.93 ± 0.45 %. Besides, the “blood clot resolution (thrombolytic) effect, in words” value in experiment [1] (compared with the blank control group, 2.5-10 mg/mL) was “significant thrombolytic effect”. Further, the “TXB2 level in rat plasma” value came to 4.93 ± 0.12 pg/mL in experiment [2] (25 mg/Kg · d intragastric), 3.12 ± 0.14 pg/mL in experiment [2] (250 mg/Kg · d intragastric) and 4.38 ± 0.22 pg/mL in experiment [2] (intragastric). For the same molecule, the “content of TXB2 in rat plasma, in words” value in experiment [2] (setting [5]) is “reduced in a dose-dependent manner”. The “PGE2 level in rat plasma” value stood at 26.18 ± 0.21 pg/mL in experiment [3] (25 mg/Kg · d intragastric), 24.22 ± 0.14 pg/mL in experiment [3] (50 mg/Kg · d intragastric) and 20.87 ± 0.19 pg/mL in experiment [3] (250 mg/Kg · d intragastric). Further, the “content of PGE2 in rat plasma, in words” value in experiment [3] (setting [5]) is reported as “reduced in a dose-dependent manner”. The “6-Ke-PGF1a level in rat plasma” value was 76.46 ± 0.17 pg/mL in experiment [4] (25 mg/Kg · d intragastric), 85.40 ± 0.32 pg/mL in experiment [4] (50 mg/Kg · d intragastric) and 81.36 ± 0.28 pg/mL in experiment [4] (250 mg/Kg · d intragastric). For the same molecule, the “content of 6-Ke-PGF1a in rat plasma, in words” value in experiment [4] (compared with the blank control group, 25-250 mg/Kg · d, no obvious dose-dependent relationship) is “increased”.
For the molecule urokinase [reference compound], in experiment [1] (0.5 U/mL), the “Resolution/% (thrombus resolution rate)” value amounted to 12.38 ± 0.27 %.
